# Values joined by “and” are separate entries in the source; they are usually repeats but may differ in a detail not shown here. Equal values may be shown once. Inconclusive results and toxic doses are left out.
# Test system: P388 leukemia ip, CD2F1 mice, survival T/C
# Assay: NCI In Vivo Anticancer Drug Screen. Data for tumor model P388 Leukemia (intraperitoneal) in CD2F1 (CDF1) mice
# Settings: endpoint: median survival time, higher = longer survival
# Summary of the method: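 Mice carrying the transplanted tumor received test compound or vehicle. Survival was recorded in each group, and the value is the treated-group measurement divided by that of the vehicle-treated control group.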
# [1] = dose: 25.0 mg/kg/injection, schedule: Q01DX009 (ip), vehicle: saline with Tween-80
# [2] = dose: 60.0 mg/kg/injection, schedule: Q01DX005 (ip), vehicle: saline with Tween-80
# [3] = dose: 120.0 mg/kg/injection, schedule: Q01DX005 (ip), vehicle: saline with Tween-80
compound,measurement,setting,value
COC(=O)C/C(=C/C=C1/C(=O)ON=C1C)c1c(C)[nH]oc1=O,T/C,"dose: 100.0 mg/kg/injection, schedule: Q04DX003 (ip), vehicle: saline",100 % of control
same,T/C,"dose: 200.0 mg/kg/injection, schedule: Q04DX003 (ip), vehicle: saline",100 % of control
same,T/C,"dose: 400.0 mg/kg/injection, schedule: Q04DX003 (ip), vehicle: saline",100 % of control
FC(F)(F)SN1COCN(SC(F)(F)F)C1,T/C,"dose: 30.0 mg/kg/injection, schedule: Q01DX005 (ip), vehicle: saline",96 % of control
same,T/C,"dose: 60.0 mg/kg/injection, schedule: Q01DX005 (ip), vehicle: saline",100 % of control
same,T/C,"dose: 120.0 mg/kg/injection, schedule: Q01DX005 (ip), vehicle: saline",99 % of control and 102 % of control
CNc1ccc([N+](=O)[O-])cc1C(=O)OC,T/C,"dose: 12.5 mg/kg/injection, schedule: Q01DX009 (ip), vehicle: saline with Tween-80",99 % of control
same,T/C,[1],98 % of control
same,T/C,"dose: 50.0 mg/kg/injection, schedule: Q01DX009 (ip), vehicle: saline with Tween-80",102 % of control
COS(C)=O (configuration not stated),T/C,"dose: 50.0 mg/kg/injection, schedule: Q01DX009 (ip), vehicle: saline",99 % of control
same,T/C,"dose: 100.0 mg/kg/injection, schedule: Q01DX009 (ip), vehicle: saline",99 % of control
CCOC(=O)C(=CNc1cccc2c(O)cccc12)C(=O)OCC,T/C,"dose: 12.5 mg/kg/injection, schedule: Q01DX005 (ip), vehicle: saline with Tween-80",90 % of control
same,T/C,"dose: 25.0 mg/kg/injection, schedule: Q01DX005 (ip), vehicle: saline with Tween-80",93 % of control
same,T/C,"dose: 50.0 mg/kg/injection, schedule: Q01DX005 (ip), vehicle: saline with Tween-80",97 % of control
same,T/C,"dose: 200.0 mg/kg/injection, schedule: Q01DX005 (ip), vehicle: saline with Tween-80",95 % of control
Cc1cc(Cl)n[nH]1,T/C,"dose: 6.25 mg/kg/injection, schedule: Q01DX009 (ip), vehicle: saline with Tween-80",108 % of control
same,T/C,"dose: 12.0 mg/kg/injection, schedule: Q01DX009 (ip), vehicle: saline with Tween-80",108 % of control
same,T/C,[1],106 % of control
Nc1nc(N)c2c(Cl)c(CNc3ccc(Cl)c(Cl)c3)ccc2n1,T/C,"dose: 0.18 mg/kg/injection, schedule: Q01DX009 (ip), vehicle: saline with Tween-80",97 % of control
same,T/C,"dose: 0.37 mg/kg/injection, schedule: Q01DX009 (ip), vehicle: saline with Tween-80",102 % of control
same,T/C,"dose: 0.75 mg/kg/injection, schedule: Q01DX009 (ip), vehicle: saline with Tween-80",99 % of control
same,T/C,"dose: 1.5 mg/kg/injection, schedule: Q01DX009 (ip), vehicle: saline with Tween-80",99 % of control
N=C(N)n1cc(/C=N/N=C(N)N)cn1,T/C,[2],102 % of control
same,T/C,[3],103 % of control
COc1cccc2c1C(=O)c1c(O)c3c(c(O)c1C2=O)CC(O)(/C(C)=N/NC(=O)CCC(=O)N/N=C(\C)C1(O)Cc2c(O)c4c(c(O)c2C(OC2CC(N(C)C)C(O)C(C)O2)C1)C(=O)c1c(OC)cccc1C4=O)CC3OC1CC(N(C)C)C(O)C(C)O1 (configuration not stated),T/C,"dose: 1.0 mg/kg/injection, schedule: Q01DX009 (ip), vehicle: water",157 % of control
same,T/C,"dose: 2.0 mg/kg/injection, schedule: Q01DX009 (ip), vehicle: water",183 % of control
same,T/C,"dose: 3.13 mg/kg/injection, schedule: Q04DX003 (ip), vehicle: water",103 % of control
same,T/C,"dose: 4.0 mg/kg/injection, schedule: Q01DX009 (ip), vehicle: water",178 % of control and 203 % of control
same,T/C,"dose: 6.25 mg/kg/injection, schedule: Q04DX003 (ip), vehicle: water",110 % of control
same,T/C,"dose: 8.0 mg/kg/injection, schedule: Q01DX009 (ip), vehicle: water",160 % of control and 240 % of control
same,T/C,"dose: 12.5 mg/kg/injection, schedule: Q04DX003 (ip), vehicle: water",117 % of control
same,T/C,"dose: 16.0 mg/kg/injection, schedule: Q01DX009 (ip), vehicle: water",152 % of control
same,T/C,"dose: 25.0 mg/kg/injection, schedule: Q04DX003 (ip), vehicle: water",174 % of control
same,T/C,"dose: 50.0 mg/kg/injection, schedule: Q04DX003 (ip), vehicle: water",119 % of control
COc1cccc(NCNC2Nc3ccccc3N2)c1,T/C,"dose: 15.0 mg/kg/injection, schedule: Q01DX005 (ip), vehicle: saline with Tween-80",106 % of control
same,T/C,"dose: 30.0 mg/kg/injection, schedule: Q01DX005 (ip), vehicle: saline with Tween-80",107 % of control
same,T/C,[2],107 % of control
COc1cc(C2CC(C)(O)Oc3cc4c(cc32)OCO4)cc(OC)c1O (configuration not stated),T/C,[2],95 % of control
same,T/C,[3],98 % of control
same,T/C,"dose: 240.0 mg/kg/injection, schedule: Q01DX005 (ip), vehicle: saline with Tween-80",95 % of control
Cc1cc(=S)c2cc3c(cc2[nH]1)OCO3,T/C,"dose: 50.0 mg/kg/injection, schedule: Q01DX005 (ip), vehicle: Klucel (hydroxypropylcellulose) (HPC)",107 % of control
same,T/C,"dose: 100.0 mg/kg/injection, schedule: Q01DX005 (ip), vehicle: Klucel (hydroxypropylcellulose) (HPC)",101 % of control
same,T/C,"dose: 200.0 mg/kg/injection, schedule: Q01DX005 (ip), vehicle: Klucel (hydroxypropylcellulose) (HPC)",103 % of control
O=P1(Oc2ccccc2)NC2CCCCC2N1 (configuration not stated),T/C,"dose: 12.5 mg/kg/injection, schedule: Q01DX005 (ip), vehicle: Klucel + Tween-80",95 % of control
same,T/C,"dose: 25.0 mg/kg/injection, schedule: Q01DX005 (ip), vehicle: Klucel + Tween-80",97 % of control
same,T/C,"dose: 50.0 mg/kg/injection, schedule: Q01DX005 (ip), vehicle: Klucel + Tween-80",95 % of control
same,T/C,"dose: 100.0 mg/kg/injection, schedule: Q01DX001 (ip), vehicle: Klucel (hydroxypropylcellulose) (HPC)",94 % of control
